The values that follow come from patent US12121521B2, “Uses of salt-inducible kinase (SIK) inhibitors for treating osteoporosis” (The General Hospital Corporation, priority 2016, dated 2024).

Entries after “also recorded” stand apart in the source; their conditions may differ.

A short description of data set [1]: Half-life in murine hepatic microsomes. It is filed as in vitro ADME. The settings on record: compared to YKL-04-114 and HG-9-91-01; FIG. 16. The protocol:
FIG. 16: The half-life (in minute) of the indicated compound was measured in murine hepatic microsomes.

The next data set addresses T1, PLK1 (Homo sapiens, UniProt P53350).
T1 construct: T7 phage fusion (most kinases) or DNA tag for qPCR (kinases made in HEK-293); purchased DiscoverX; host or cells: E. coli BL21-derived host (T7 phage) or HEK-293
As to the kind of experiment: ScanEDGE kinase panel (DiscoverX). It is filed as binding. The settings on record: read-out: % of control activity at 71 nM. How it is done: (§1) ScanEDGE kinase assays paneling specificity across a panel of 96 representative kinases were performed by DiscoverX (Fremont, CA). For most assays, kinase-tagged T7 phage strains were grown in parallel in 24-well blocks in an E. coli host derived from the BL21 strain. Bacteria were grown to log phase and infected with T7 phage from frozen stock (MOI=0.4) and incubated with shaking at 32° C. until lysis (90-150 minutes). The lysates were centrifuged (6000×g) and filtered (0.2 μm) to remove cell debris. The remaining kinases were produced in HEK-293 cells and subsequently tagged with DNA for qPCR detection. […] The liganded beads were blocked with excess biotin and washing with blocking buffer (SeaBlock (Pierce), 1% BSA, 0.05% Tween 20, 1 mM DTT) to remove unbound ligand and to reduce non-specific phage binding. […] Test compounds were prepared as 40× stocks in 100% DMSO and directly diluted into the assay. All reactions were performed in polypropylene 384 well plates in a final volume of 40 μl. […] The kinase concentration in the eluates was measured by qPCR.

For the next data set, the target named is T2, RSK2 (Homo sapiens, UniProt P51812).
T2 construct: T7 phage fusion (most kinases) or DNA tag after HEK-293 expression; purchased DiscoverX (Fremont, CA), ScanEDGE; host or cells: T7 phage in E. coli BL21-derived host, or HEK-293
The data set can be described thus: ScanEDGE kinase panel (DiscoverX). In kind it is binding. The settings on record: read-out: % of control activity at 71 nM. The protocol:
as §1

For the next data set, the target named is T3, GSK3B (Homo sapiens, UniProt P49841).
T3 construct: T7 phage fusion (most kinases) or DNA tag for qPCR (HEK-293-made kinases); purchased DiscoverX; host or cells: E. coli BL21-derived host (T7 phage) or HEK-293
The data set can be described thus: ScanEDGE kinase panel (DiscoverX). In kind it is binding. The settings on record: read-out: % of control activity at 71 nM. How it is done: as §1

In a further data set the target is T4, AMPK-alpha1 (Homo sapiens, UniProt Q13131).
T4 construct: T7 phage fusion (most kinases) or DNA tag for qPCR (HEK-293-made kinases); purchased DiscoverX (Fremont, CA); host or cells: E. coli BL21-derived host (T7 phage) or HEK-293
The data set can be described thus: ScanEDGE kinase panel (DiscoverX). It is filed as binding. The settings on record: read-out: % of control activity at 71 nM. How it is done:
as §1

A further data set has as its target T5, BRAF (Homo sapiens, UniProt P15056).
T5 construct: T7 phage fusion (most kinases) or DNA tag for qPCR (HEK-293-made kinases); purchased DiscoverX (Fremont, CA); host or cells: E. coli BL21-derived host (T7 phage) or HEK-293
As to the kind of experiment: ScanEDGE kinase panel (DiscoverX). It is filed as binding. To be noted: read-out: % of control activity at 71 nM. The protocol: as §1

The target of the next data set is T6, JAK2 (Homo sapiens, UniProt O60674).
T6 construct: T7 phage fusion (most kinases) or DNA tag for qPCR (HEK-293-made kinases); purchased DiscoverX; host or cells: E. coli BL21-derived host (T7 phage) or HEK-293
The data set can be described thus: ScanEDGE kinase panel (DiscoverX). The settings on record: read-out: % of control activity at 71 nM. It is filed as binding. How it is done: as §1

The target of the next data set is T7, PRKCE (Homo sapiens, UniProt Q02156).
T7 construct: T7 phage fusion (most kinases) or DNA tag for qPCR (kinases made in HEK-293); purchased DiscoverX; host or cells: E. coli BL21-derived host (T7 phage) or HEK-293
The data set can be described thus: ScanEDGE kinase panel (DiscoverX). In kind it is binding. The settings on record: read-out: % of control activity at 71 nM. The protocol:
as §1

For the next data set, the target named is T8, MEK1 (Homo sapiens, UniProt Q02750).
T8 construct: T7 phage fusion (most kinases) or DNA tag for qPCR (kinases made in HEK-293); purchased DiscoverX; host or cells: E. coli BL21-derived host (T7 phage) or HEK-293
The data set can be described thus: ScanEDGE kinase panel (DiscoverX). To be noted: read-out: % of control activity at 71 nM. In kind it is binding. How it is done: as §1

For a further data set, the system named is male mice. As to the kind of experiment: Acute YKL-05-099 administration: bone gene expression. In kind it is in vivo, mouse. The settings on record: single I.P. dose 20 μmol/kg, 2 hours. How it is done: Whole cell extracts were generated, followed by immunoblotting. […] RNA was prepared, and gene expression analyzed by RT-qPCR. […] 2 hours later, animals were sacrificed, RNA was prepared from femurs, and gene expression analyzed by RT-qPCR. […] Animals were sacrificed 2 hours after the final dose, and RNA from femurs analyzed for the indicated genes. BGLAP encodes osteocalcin. * indicated p<0.01 versus vehicle, # indicates p<0.05 versus vehicle. (FIGS. 8E to 8K), static and dynamic histomorphometry were performed on the tibia from the same mice as in FIG. 8D. Each data point represents an individual mouse, p values for each difference are shown on the graph. (FIG. 8L) Representative photomicrograph showing increased osteoblasts on cancellous bone surfaces from YKL-05-099-treated mice.
All animals were housed in the Center for Comparative Medicine at the Massachusetts General Hospital, and all experiments were approved by the hospital's Subcommittee on Research Animal Care. HDAC5-null mice (70) and HDAC4 f/f mice (71) were generously provided by Dr. Eric Olson (University of Texas Southwestern Medical Center, Dallas, TX) and were backcrossed to C57B/6 mice for at least 6 generations. […] In all instances, skeletal phenotypes were evaluated in 8 week-old sex-matched littermates. […]

The conditions of data set [2]: in vivo; cited from earlier work.

T8 sequence (Q02750 whole entry, the tested form may be a part): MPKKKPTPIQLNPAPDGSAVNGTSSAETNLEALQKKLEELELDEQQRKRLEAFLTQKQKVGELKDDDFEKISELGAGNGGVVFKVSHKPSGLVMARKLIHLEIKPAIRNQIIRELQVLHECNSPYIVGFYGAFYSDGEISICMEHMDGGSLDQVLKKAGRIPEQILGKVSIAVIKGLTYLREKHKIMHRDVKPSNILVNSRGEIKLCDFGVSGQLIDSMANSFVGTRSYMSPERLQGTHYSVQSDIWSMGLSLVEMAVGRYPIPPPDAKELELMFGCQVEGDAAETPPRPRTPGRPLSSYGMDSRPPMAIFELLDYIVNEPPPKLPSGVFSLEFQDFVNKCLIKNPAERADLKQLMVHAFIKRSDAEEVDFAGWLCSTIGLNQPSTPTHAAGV
T7 sequence (Q02156 whole entry, the tested form may be a part): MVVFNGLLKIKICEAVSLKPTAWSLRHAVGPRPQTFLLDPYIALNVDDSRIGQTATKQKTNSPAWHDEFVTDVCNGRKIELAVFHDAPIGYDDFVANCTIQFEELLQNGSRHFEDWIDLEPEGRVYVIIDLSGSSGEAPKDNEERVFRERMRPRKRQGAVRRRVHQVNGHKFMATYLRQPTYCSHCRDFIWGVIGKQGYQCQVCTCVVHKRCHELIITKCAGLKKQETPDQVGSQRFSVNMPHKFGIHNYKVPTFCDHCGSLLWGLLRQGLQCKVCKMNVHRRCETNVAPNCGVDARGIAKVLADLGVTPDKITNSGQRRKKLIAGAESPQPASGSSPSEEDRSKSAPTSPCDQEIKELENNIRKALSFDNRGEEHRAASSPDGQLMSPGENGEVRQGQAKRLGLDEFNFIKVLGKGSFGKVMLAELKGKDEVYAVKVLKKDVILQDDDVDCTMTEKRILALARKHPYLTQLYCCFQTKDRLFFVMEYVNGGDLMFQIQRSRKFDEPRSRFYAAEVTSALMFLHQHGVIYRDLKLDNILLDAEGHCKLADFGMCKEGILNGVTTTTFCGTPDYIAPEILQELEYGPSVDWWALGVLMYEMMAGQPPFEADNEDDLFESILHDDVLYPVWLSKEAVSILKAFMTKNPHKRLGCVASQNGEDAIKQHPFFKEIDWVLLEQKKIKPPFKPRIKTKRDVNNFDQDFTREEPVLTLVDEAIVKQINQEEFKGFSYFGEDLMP
T6 sequence (O60674 840-1132 limits assumed): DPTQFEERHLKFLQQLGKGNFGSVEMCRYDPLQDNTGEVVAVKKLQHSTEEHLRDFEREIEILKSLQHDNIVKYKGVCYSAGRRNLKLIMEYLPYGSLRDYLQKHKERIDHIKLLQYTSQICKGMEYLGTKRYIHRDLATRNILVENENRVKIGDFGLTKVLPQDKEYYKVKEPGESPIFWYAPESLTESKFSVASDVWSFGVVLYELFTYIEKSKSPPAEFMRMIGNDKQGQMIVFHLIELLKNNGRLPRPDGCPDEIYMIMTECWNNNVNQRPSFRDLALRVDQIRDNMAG
T2 sequence (P51812 39-397 limits assumed): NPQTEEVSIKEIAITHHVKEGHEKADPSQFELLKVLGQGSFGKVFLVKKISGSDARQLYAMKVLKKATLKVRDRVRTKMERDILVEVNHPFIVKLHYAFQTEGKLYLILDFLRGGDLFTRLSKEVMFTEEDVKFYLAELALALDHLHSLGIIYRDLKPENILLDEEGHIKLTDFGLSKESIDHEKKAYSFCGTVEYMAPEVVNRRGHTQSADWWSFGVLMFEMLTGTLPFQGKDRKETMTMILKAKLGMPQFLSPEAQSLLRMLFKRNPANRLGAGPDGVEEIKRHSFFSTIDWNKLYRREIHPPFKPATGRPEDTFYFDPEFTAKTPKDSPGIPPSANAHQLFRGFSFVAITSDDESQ
T5 sequence (P15056 whole entry, the tested form may be a part): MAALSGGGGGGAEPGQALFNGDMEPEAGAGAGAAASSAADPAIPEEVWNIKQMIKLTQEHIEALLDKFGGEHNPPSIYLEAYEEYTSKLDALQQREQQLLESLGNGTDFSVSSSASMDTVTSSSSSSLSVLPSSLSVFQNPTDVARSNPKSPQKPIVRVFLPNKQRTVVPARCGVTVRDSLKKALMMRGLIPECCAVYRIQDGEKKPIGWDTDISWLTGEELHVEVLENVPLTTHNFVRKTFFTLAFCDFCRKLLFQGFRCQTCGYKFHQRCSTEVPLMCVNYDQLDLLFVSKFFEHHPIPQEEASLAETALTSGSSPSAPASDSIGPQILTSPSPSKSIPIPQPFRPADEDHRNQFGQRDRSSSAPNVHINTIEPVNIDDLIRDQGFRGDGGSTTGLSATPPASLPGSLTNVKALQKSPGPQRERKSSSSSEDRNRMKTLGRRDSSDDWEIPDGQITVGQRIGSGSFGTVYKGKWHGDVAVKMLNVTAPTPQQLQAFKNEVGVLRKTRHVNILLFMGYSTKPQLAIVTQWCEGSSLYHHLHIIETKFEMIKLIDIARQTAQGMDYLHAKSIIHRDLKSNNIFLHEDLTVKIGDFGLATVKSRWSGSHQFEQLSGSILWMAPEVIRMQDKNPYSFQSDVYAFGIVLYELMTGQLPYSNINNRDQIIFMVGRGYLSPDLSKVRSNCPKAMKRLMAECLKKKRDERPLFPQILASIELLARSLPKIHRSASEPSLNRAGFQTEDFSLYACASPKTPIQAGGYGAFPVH
T3 sequence (P49841 whole entry, the tested form may be a part): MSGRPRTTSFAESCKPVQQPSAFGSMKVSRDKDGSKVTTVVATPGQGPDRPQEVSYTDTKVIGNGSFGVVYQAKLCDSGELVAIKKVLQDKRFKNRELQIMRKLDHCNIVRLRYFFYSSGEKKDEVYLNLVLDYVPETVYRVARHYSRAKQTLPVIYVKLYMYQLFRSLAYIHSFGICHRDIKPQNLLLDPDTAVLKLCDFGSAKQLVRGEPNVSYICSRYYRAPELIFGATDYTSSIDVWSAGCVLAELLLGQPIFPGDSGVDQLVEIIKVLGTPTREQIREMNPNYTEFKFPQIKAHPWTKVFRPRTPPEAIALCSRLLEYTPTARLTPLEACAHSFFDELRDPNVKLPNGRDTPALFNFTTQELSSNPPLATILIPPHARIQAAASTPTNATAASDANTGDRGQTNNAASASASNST
T4 sequence (Q13131 whole entry, the tested form may be a part): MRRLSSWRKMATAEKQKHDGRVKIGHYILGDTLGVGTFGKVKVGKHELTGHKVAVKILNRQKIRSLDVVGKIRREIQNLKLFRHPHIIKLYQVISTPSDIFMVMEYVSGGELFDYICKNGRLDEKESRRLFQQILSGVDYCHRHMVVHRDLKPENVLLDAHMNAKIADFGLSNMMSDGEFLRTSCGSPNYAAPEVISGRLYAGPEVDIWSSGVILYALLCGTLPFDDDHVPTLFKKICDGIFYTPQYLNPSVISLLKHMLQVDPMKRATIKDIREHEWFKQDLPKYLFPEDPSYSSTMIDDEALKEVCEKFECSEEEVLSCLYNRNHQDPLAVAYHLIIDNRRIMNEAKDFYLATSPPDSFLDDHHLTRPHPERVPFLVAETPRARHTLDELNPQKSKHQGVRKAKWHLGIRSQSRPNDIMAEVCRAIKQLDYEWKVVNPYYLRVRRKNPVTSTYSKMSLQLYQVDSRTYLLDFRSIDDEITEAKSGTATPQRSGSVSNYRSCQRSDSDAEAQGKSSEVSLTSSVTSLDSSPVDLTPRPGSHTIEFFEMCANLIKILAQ
T1 sequence (P53350 whole entry, the tested form may be a part): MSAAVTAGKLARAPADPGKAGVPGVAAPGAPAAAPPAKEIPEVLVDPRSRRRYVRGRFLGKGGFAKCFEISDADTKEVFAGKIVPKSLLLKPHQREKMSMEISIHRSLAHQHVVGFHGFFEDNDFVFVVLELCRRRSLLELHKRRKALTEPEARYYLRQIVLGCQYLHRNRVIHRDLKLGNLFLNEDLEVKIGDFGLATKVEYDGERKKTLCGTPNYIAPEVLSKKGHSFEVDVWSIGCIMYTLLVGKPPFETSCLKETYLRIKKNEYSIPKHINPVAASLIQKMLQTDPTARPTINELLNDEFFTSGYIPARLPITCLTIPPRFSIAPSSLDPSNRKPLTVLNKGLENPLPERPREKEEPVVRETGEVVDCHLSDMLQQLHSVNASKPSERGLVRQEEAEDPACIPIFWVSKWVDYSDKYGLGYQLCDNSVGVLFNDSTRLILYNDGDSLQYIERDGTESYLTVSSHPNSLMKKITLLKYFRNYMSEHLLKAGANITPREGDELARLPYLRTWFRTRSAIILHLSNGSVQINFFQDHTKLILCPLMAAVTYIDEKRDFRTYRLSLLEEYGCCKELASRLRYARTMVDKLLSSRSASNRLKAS

For `COc1ccc(N2C(=O)N(c3c(C)cccc3C)Cc3cnc(Nc4ccc(C5CCN(C)CC5)c(OC)c4)nc32)c(OC)c1` [YKL-05-093], the “half-life / stability in murine hepatic microsomes” value in [1] was “improved half-life; also recorded: somewhat improved stability”. Also, the remaining binding at 0.071 µM on PLK1 amounted to 100%; on RSK2, 51%; at GSK3B, 68%; on AMPK-alpha1 it was 94%; at BRAF it was 66%; on JAK2 it was 13%. Further, the remaining binding at 0.071 µM at PRKCE was determined as 92%; at MEK1 it was 20%.
Turning to `COc1ccc(N2C(=O)N(c3c(C)cccc3Cl)Cc3cnc(Nc4ccc(C5CCN(C)CC5)cc4OC)nc32)nc1` [YKL-05-099], in the data set on male mice, the “RANKL in bone RNA” value was “RANKL up-regulation” and the “SOST in bone RNA” value was “SOST down-regulation”. For the same compound, the tolerability result in data set [2] is “well-tolerated”.
